Series [1] in a line: DNDI: Cytotoxicity against L-6 rat myoblasts from skeletal muscle cells. Conditions: L6 rat skeletal muscle myoblast cells, IC50.
Series [2] relates to Trypanosoma cruzi. Description: microbe, parasite or virus in culture. Conditions: Trypanosoma cruzi, Tulahuen LacZ, Clone C4. It is filed as functional, Tulahuen LacZ, Clone C4.
Series [3] has as its system Trypanosoma cruzi. Description: microbe, parasite or virus in culture. The class given is functional, organism-based, Tulahuen LacZ, Clone C4. Conditions: Trypanosoma cruzi, Tulahuen LacZ, Clone C4.

Consider `O=C(C1CC1)N1CCC(NC(c2ccc(C(F)(F)F)cc2)c2cccnc2)CC1` (stereo not given), for which the figures for the IC50 (in series [1]; in the series with Trypanosoma cruzi [3]) were > 100000 nM and 150 nM, respectively. In the series with Trypanosoma cruzi [2], this compound came in with a concentration for an effect of 90% (IC90) of 550 nM.

For the compound `CCN(CC)C(=O)N1CCC(NC(c2ccc(C(F)(F)F)cc2)c2cccnc2)CC1` (stereo not given), the values for the 50% inhibitory concentration (IC50) (in series [1]; in the series on Trypanosoma cruzi [3]) were 90800 nM and 36 nM, respectively. This compound yielded an IC90 in the series with Trypanosoma cruzi [2] of 250 nM.

As for `OC(c1ccc(Cl)cc1)(c1cccnc1)c1cnc(OC(CF)CF)nc1` (stereo not given), the IC50 is > 100000 nM in series [1] and 32 nM with Trypanosoma cruzi [3]. The compound further displayed an IC90 in the series on Trypanosoma cruzi [2] of 150 nM.

For `CC(C)(C)CC(=O)NC1CCN(C(c2ccc(Cl)cc2)c2cccnc2)CC1` (stereo not given), the IC50 was > 100000 nM in series [1] and 8.8 nM in the series on Trypanosoma cruzi [3]. For the same compound, the IC90 in the series on Trypanosoma cruzi [2] was found to be 65 nM.

In the case of `CS(=O)(=O)NC1CCN(C(c2ccc(Cl)cc2)c2cncnc2)CC1` (stereo not given), the IC50 in series [1] is > 100000 nM; in the series with Trypanosoma cruzi [3], 630 nM. For the same compound, the IC90 in the series with Trypanosoma cruzi [2] is > 1000 nM.

As to `CCN(CC)C(=O)NC1CCN(C(c2ccc(Cl)cc2)c2cccnc2)CC1` (stereo not given), the IC50 was > 100000 nM in series [1] and 120 nM in the series on Trypanosoma cruzi [3]. The compound further returned an IC90 in the series with Trypanosoma cruzi [2] of 730 nM.

Regarding `O=C(c1ccccc1)N1CCC(NC(c2ccc(C(F)(F)F)cc2)c2cccnc2)CC1` (stereo not given), the IC50 stood at 72800 nM in series [1] and 83 nM in the series on Trypanosoma cruzi [3]. For the same compound, it took 770 nM to reach the 90% level in the series with Trypanosoma cruzi [2] (IC90).

For `CCN(CC)C(=O)NC1CCN(C(c2ccc(Cl)cc2)c2cncnc2)CC1` (stereo not given), the figures for the IC50 (in series [1]; in the series on Trypanosoma cruzi [3]) were > 100000 nM and 110 nM, respectively. In the series on Trypanosoma cruzi [2], it took 860 nM to reach the 90% level (IC90).

With `O=S1(=O)CCCN1C1CCN(C(c2ccc(Cl)cc2)c2cccnc2)CC1` (stereo not given), the values for the IC50 (in series [1]; in the series with Trypanosoma cruzi [3]) were > 100000 nM and 17 nM, respectively. In the series on Trypanosoma cruzi [2], this compound gave a concentration for an effect of 90% (IC90) of 100 nM.

Regarding `O=C(Nc1ccccc1)N1CCC(NC(c2ccc(C(F)(F)F)cc2)c2cccnc2)CC1` (stereo not given), the results for the IC50 (in series [1]; in the series with Trypanosoma cruzi [3]) were 64100 nM and 76 nM, respectively. In the series with Trypanosoma cruzi [2], this compound registered an IC90 of 380 nM.

Take `Nc1ncc(C(O)(c2ccc(Cl)cc2)c2cccnc2)cn1` (stereo not given): the half-inhibitory concentration (IC50) in series [1] is > 100000 nM; with Trypanosoma cruzi [3], 290 nM. Also, the 90% effect concentration (IC90) in the series with Trypanosoma cruzi [2] came to 910 nM.

Take `CS(=O)(=O)NC1CCN(C(c2ccc(Cl)cc2)c2cccnc2)CC1` (stereo not given): the IC50 in series [1] was > 100000 nM; in the series on Trypanosoma cruzi [3], 100 nM. For the same compound, in the series on Trypanosoma cruzi [2], the IC90 is 640 nM.

Take `CC(C)Oc1ccc(C(c2cccnc2)N2CCC(NC(=O)OC(C)(C)C)CC2)cc1` (stereo not given): the IC50 is 56000 nM in series [1] and 25 nM in the series with Trypanosoma cruzi [3]. Further, the IC90 in the series on Trypanosoma cruzi [2] was found to be 80 nM.

`O=C(NC(c1ccc(Cl)cc1)c1cccnc1)c1ccc(C(F)(F)F)cc1` (stereo not given): the figures for the IC50 (in series [1]; in the series with Trypanosoma cruzi [3]) were 62600 nM and 250 nM, respectively. In the series with Trypanosoma cruzi [2], this compound showed an IC90 of 690 nM.

As for `CCN(CC)C(=O)NC1CCN(C(c2ccc(OC(C)C)cc2)c2cccnc2)CC1` (stereo not given), the results for the IC50 (in series [1]; in the series with Trypanosoma cruzi [3]) were > 100000 nM and 87 nM, respectively. For the same compound, in the series on Trypanosoma cruzi [2], the IC90 worked out at 280 nM.

For the compound `CS(=O)(=O)N1CCC(NC(c2ccc(C(F)(F)F)cc2)c2cccnc2)CC1` (stereo not given), the IC50 in series [1] is > 100000 nM; with Trypanosoma cruzi [3], 190 nM. Further, the 90% effect level in the series on Trypanosoma cruzi [2] (IC90) was put at 930 nM.

Regarding `O=C(NC1CCN(C(c2ccc(Cl)cc2)c2cncnc2)CC1)c1ccccc1` (stereo not given), the IC50 in series [1] was determined as 90800 nM; in the series on Trypanosoma cruzi [3], 75 nM. Also, the 90% effect level in the series on Trypanosoma cruzi [2] (IC90) was put at 790 nM.

With `O=C(NC1CCN(C(c2cncnc2)c2ccc(Cl)cc2F)CC1)c1ccccc1` (stereo not given), the figures for the half-inhibitory concentration (IC50) (in series [1]; with Trypanosoma cruzi [3]) were 82400 nM and 22 nM, respectively. This compound also showed an IC90 in the series with Trypanosoma cruzi [2] of 110 nM.

Take `O=C(c1cc(C(O)(c2ccc(Cl)cc2)c2cccnc2)ccc1Cl)N1CCOCC1` (stereo not given): the values for the IC50 (in series [1]; in the series with Trypanosoma cruzi [3]) were > 100000 nM and 120 nM, respectively. The IC90 in the series on Trypanosoma cruzi [2] came to 470 nM.

For the compound `O=C(NC(c1ccc(Cl)cc1)c1cccnc1)c1ccc(Cl)cc1` (stereo not given), the IC50 in series [1] stood at 58000 nM; with Trypanosoma cruzi [3], 450 nM. Also, in the series with Trypanosoma cruzi [2], it took 900 nM to reach the 90% level (IC90).

Consider `O=C(Nc1ccccc1)NC1CCN(C(c2ccc(Cl)cc2)c2cncnc2)CC1` (stereo not given), for which the IC50 in series [1] came out at 54400 nM; with Trypanosoma cruzi [3] it was 100 nM. For the same compound, the IC90 with Trypanosoma cruzi [2] is > 1000 nM.

In the case of `CC(C)Oc1ccc(C(c2cccnc2)N2CCC(NS(C)(=O)=O)CC2)cc1` (stereo not given), the 50% inhibitory concentration (IC50) is > 100000 nM in series [1] and 110 nM in the series with Trypanosoma cruzi [3]. In the series on Trypanosoma cruzi [2], the 90% effect level (IC90) was put at 320 nM.

Regarding `CC(C)(C)OC(=O)NC1CCN(C(c2cccnc2)c2ccc(Cl)cc2F)CC1` (stereo not given), the IC50 in series [1] turned out to be 55100 nM; with Trypanosoma cruzi [3], 10 nM. Also, the IC90 in the series on Trypanosoma cruzi [2] turned out to be 46 nM.

As to `O=C(NC1CCCC1)NC1CCN(C(c2ccc(Cl)cc2)c2cccnc2)CC1` (stereo not given), the IC50 was determined as 62600 nM in series [1] and 60 nM in the series with Trypanosoma cruzi [3]. The 90% effect concentration (IC90) with Trypanosoma cruzi [2] is 220 nM.

As to `O=C(NC1CCN(C(c2ccc(Cl)cc2)c2cncnc2)CC1)C1CC1` (stereo not given), the concentration for half-maximal inhibition (IC50) in series [1] was > 100000 nM; in the series on Trypanosoma cruzi [3], 480 nM. The IC90 in the series on Trypanosoma cruzi [2] is > 1000 nM.

In the case of `CS(=O)(=O)N1CCC(C(O)(c2ccc(Cl)cc2)c2cccnc2)CC1` (stereo not given), the IC50 was > 100000 nM in series [1] and 200 nM with Trypanosoma cruzi [3]. In the series on Trypanosoma cruzi [2], this compound came in with an IC90 of 550 nM.

In the case of `CC(C)Oc1ccc(C(c2cccnc2)N2CCC(NC(=O)C3CC3)CC2)cc1` (stereo not given), the half-maximal inhibitory concentration (IC50) is > 100000 nM in series [1] and 380 nM with Trypanosoma cruzi [3]. This compound also had an IC90 with Trypanosoma cruzi [2] of 860 nM.

Regarding `CC(C)(C)OC(=O)NC1CCN(C(c2cncnc2)c2ccc(Cl)cc2F)CC1` (stereo not given), the IC50 in series [1] is > 100000 nM; in the series on Trypanosoma cruzi [3], 59 nM. In the series on Trypanosoma cruzi [2], this compound came in with an IC90 of 190 nM.

Regarding `O=C(NC1CCN(C(c2cncnc2)c2ccc(Cl)cc2F)CC1)C1CC1` (stereo not given), the IC50 in series [1] was > 100000 nM; in the series with Trypanosoma cruzi [3], 150 nM. For the same compound, the IC90 in the series on Trypanosoma cruzi [2] turned out to be 480 nM.

Turning to `O=C(NC1CCN(C(c2ccc(Cl)cc2)c2cccnc2)CC1)c1ccccc1` (stereo not given), the results for the 50% inhibitory concentration (IC50) (in series [1]; with Trypanosoma cruzi [3]) were 64100 nM and 10 nM, respectively. This compound also came in with an IC90 with Trypanosoma cruzi [2] of 430 nM.

With `CC(C)Oc1ccc(C(O)(c2cccnc2)c2cccc(C(N)=O)c2)cc1` (stereo not given), the concentration for half-maximal inhibition (IC50) in series [1] came out at 69700 nM; with Trypanosoma cruzi [3], 92 nM. In the series with Trypanosoma cruzi [2], it took 330 nM to reach the 90% level (IC90).

`CC(C)Oc1ccc(C(c2cccnc2)N2CCC(NC(=O)c3ccccc3)CC2)cc1` (stereo not given): the IC50 in series [1] was > 100000 nM; in the series on Trypanosoma cruzi [3], 61 nM. The 90% effect level in the series on Trypanosoma cruzi [2] (IC90) was put at 180 nM.

Take `O=C(NC1CCN(C(c2ccc(Cl)cc2)c2cccnc2)CC1)C1CC1` (stereo not given): the half-inhibitory concentration (IC50) in series [1] was determined as 84100 nM; in the series on Trypanosoma cruzi [3], 78 nM. The same compound registered an IC90 in the series on Trypanosoma cruzi [2] of 580 nM.

As for `CC(C)(C)OC(=O)NC1CCN(C(c2ccc(Cl)cc2)c2cccnc2)CC1` (stereo not given), the IC50 is 54000 nM in series [1] and 8.5 nM in the series on Trypanosoma cruzi [3]. Besides, in the series with Trypanosoma cruzi [2], the 90% effect level (IC90) was put at 46 nM.

Regarding `CC(C)Oc1ccc(C(c2cccnc2)N2CCC(NC(=O)Nc3ccccc3)CC2)cc1` (stereo not given), the half-maximal inhibitory concentration (IC50) in series [1] worked out at 74200 nM; with Trypanosoma cruzi [3] it was 57 nM. Also, the IC90 in the series on Trypanosoma cruzi [2] is 110 nM.

In the case of `O=C(C1CC1)N1CCC(NC(c2ccc(Cl)cc2)c2cccnc2)CC1` (stereo not given), the IC50 was > 100000 nM in series [1] and 180 nM in the series on Trypanosoma cruzi [3]. Moreover, the IC90 in the series with Trypanosoma cruzi [2] turned out to be 300 nM.

Consider `CC(C)(C)OC(=O)NC1CCN(C(c2ccc(C#N)cc2)c2cccnc2)CC1` (stereo not given), for which the concentration for half-maximal inhibition (IC50) in series [1] is > 100000 nM; in the series on Trypanosoma cruzi [3], 26 nM. This compound also yielded an IC90 in the series on Trypanosoma cruzi [2] of 100 nM.

Consider `O=C(C1CC1)N1CCN(C(c2cccnc2)c2ccc(Cl)cc2F)CC1` (stereo not given), for which the values for the IC50 (in series [1]; in the series with Trypanosoma cruzi [3]) were > 100000 nM and 26 nM, respectively. The compound further came in with a concentration for an effect of 90% (IC90) with Trypanosoma cruzi [2] of 82 nM.

On to `CC(C)Oc1ccc(C(NC(=O)c2ccc(Cl)cc2)c2cccnc2)cc1` (stereo not given), for which the results for the IC50 (in series [1]; in the series with Trypanosoma cruzi [3]) were 84900 nM and 150 nM, respectively. The 90% effect level in the series on Trypanosoma cruzi [2] (IC90) was put at 330 nM.

For `CC(C)Oc1ccc(C(O)(c2cccnc2)c2cccc(C(N)=O)c2)cc1F` (stereo not given), the IC50 in series [1] is > 100000 nM; in the series with Trypanosoma cruzi [3], 99 nM. The same compound gave an IC90 in the series on Trypanosoma cruzi [2] of 270 nM.
